Legend:
KAT2A = KAT2A (Homo sapiens (Human), UniProt Q92830); test: KAT2A acetyltransferase biochemical assay (RapidFire mass spectrometry, AcCoA to CoA); conditions: read-out: KAT2A Ki at 1 μM AcCoA, 5 μM H3 1-21 peptide, 0.5 nM KAT2A, 90-minute reaction
Protocol: • A) Compound preparation • 1) Prepare 10 mM stock solutions in 100% DMSO from solid material. • 2) Serial dilute 10 mM, 1 mM, 0.1 or 0.01 mM compound stocks 3-fold in 100% DMSO for 11-point dose response. • B) Reagent preparation • 1) Prepare 1×assay buffer containing 40 mM bis tris propane pH 8.0, 10 mM NaCl, 0.5 mM EDTA, and 0.002% Tween-20. • 2) Dilute Histone peptide (CPC Scientific) and KAT enzyme together in assay buffer to 1.25×. • 3) Dilute AcCoA (Sigma) in assay buffer to 5×. • C) Enzyme reaction • 1) Final reaction conditions for each KAT assay in a 100ul assay reaction volume: • i) KAT2A 0.5 nM, 1 uM AcCoA, 5 uM H3 1-21 peptide, 90-minute reaction • ii) KAT2B 0.5 nM, 1 uM AcCoA, 5 uM H3 1-21 peptide, 90-minute reaction • 2) Add 2 ul of diluted compound series to the assay plate (96-well round-bottom polypropylene plates) or 2 ul of DMSO for control wells. • 3) Add 11 μL of 10% formic acid to 100% effect (HPE) control wells. • 4) Add 80 ul of 1.25× Histone peptide/KAT mix to the assay plate via Multidrop Combi (ThermoFisher). Incubate 15 min at room temperature. • 5) Add 20 ul of 5× AcCoA to the assay plate via Multidrop Combi. • 6) Stop the reaction after the indicated time with the addition of 11 ul of 10% formic acid via Multidrop Combi. • 7) Each reaction was analyzed using Rapid Fire mass spectrometry platform.
KAT enzymes were expressed using a baculovirus expression system and purified at Pfizer, La Jolla. […] Acetyl coenzyme A was purchased from Sigma-Aldrich (St. Louis, MO). All other biochemical reagents were purchased from Sigma-Aldrich or ThermoFisher Scientific (Waltham, MA).
KAT assays were performed at room temperature in assay buffer containing 1 μM AcCoA, 5 μM histone peptide, 40 mM bis tris propane pH 8.0, 10 mM NaCl, 0.5 mM EDTA 0.002% Tween-20. 80 ul of 1.25× Histone peptide/enzyme mix was added to a 96-well round-bottom polypropylene assay plate containing 2 ul of serially diluted test compound in 100% dimethyl sulfoxide (DMSO). To start the reaction, 20 ul of 5× AcCoA solution was added to the assay plate. KAT assays were terminated after 90 minutes with the addition of 11 ul of 10% formic acid. All assays used histone H3 (1-21) peptide. The final enzyme concentration for each KAT was as follows: KAT2A, 0.5 nM; KAT2B, 0.5 nM. […] Each reaction was analyzed using Rapid Fire mass spectrometry platform. This methodology leverages an Agilent 6495 triple quadrupole (QQQ) mass spectrometer coupled to a RapidFire model 365 to specifically capture and measure KAT2 acetyltransferase activity, converting AcCoA (substrate) to CoA (product).
Area under the curve (AUC) for both substrate and product peaks was determined for KAT2 at M.W. 809.6 [Substrate+H]+ and 767.3 [Product+H]+ with a +/−1 Da tolerance, respectively. Acetyltransferase activity (% of DMSO control) was calculated by: ((AUCProduct/AUCsubstrate)-AUCHPE)/(AUCZPE-AUCHPE))*100. Ki values were determined by fitting the % acetyltransferase activity at each inhibitor concentration to the Morrison equation for tightbinding competitive inhibitors using Pfizer proprietary curve fitting software.
To determine the inhibition of KAT enzymatic activity by test compounds, assay reactions were conducted in a volume of 100 μL in 96-well round-bottom polypropylene assay plate. The reactions were performed in assay buffer (40 mM bis tris propane, pH 8, 10 mM NaCl, 0.5 mM EDTA, 0.002% Tween-20).

H3K9AC (HT1080 cells) = test: H3K9AC Sandwich ELISA Assay in HT1080 cells (KAT2A primary cell-based screening assay); design: species or system Human
Protocol: Human fibrosarcoma cell line HT1080 was obtained from American Type Culture Collection (ATCC), Manassas, VA USA, Cat. HT-1080 (ATCC® CCL-121™). Cells were cultured in MEM (Thermo Fisher Scientific/Gibco Life Technologies Cat. #11-095-080) plus 10% (v/v) FBS (Thermo Fisher Scientific/Gibco Life Technologies Cat. #26140-079) and 1% Penicillin-Streptomycin (Thermo Fisher Scientific/Gibco Life Technologies Cat. #15070063) at 37° C. in 5% CO2.
HT1080 cells were trypsinized, cell viability count performed, and cells suspended in complete media at 100,000 cells/ml. Cells were seeded (100 μl/well) into Greiner Bio-One CELLSTAR 96-well polystyrene flat bottom cell culture microplate (Thermo Fisher Scientific Cat. #07-000-162) at a density of 10,000 cells/well. Cells were incubated for 16 hours at 37° C. at 5% CO2. Compound dilution plates were prepared in 96-well, clear U-bottom, polypropylene plates (Corning 3365) in 100% DMSO at 10 mM stock concentration in duplicate, using 10-point serial dilution (1:3). Compounds were diluted to 1:200 in growth medium and 25 μl from intermediate compound plates were added to each well of the cell plates using a Beckman FX liquid handling system such that the highest compound concentration tested was 10 μM final, with a 0.1% final DMSO concentration in the total volume of 125 μl. Plates were incubated for 24 hours at 37° C. and 5% CO2. Plates were centrifuged at 2500 rpm for 5 minutes and medium was removed. 100 μL 0.4N HCL (Thermo Fisher Scientific Cat #SA56-1) was added to each well and plates were shaken for 60 minutes at 4C to lyse cells. 38ul 0.4N Sodium phosphase dibasic pH12.5 (Thermo Fisher Scientific Cat #S375-212) containing 2 mM Sodium Butyrate (Millipore TR1008G) and 3 mM Phenylmethanesulfonyl-fluoride (Sigma 93482) was added to each well to neutralize lysates.
Cell lysate plates were mixed for 5 minutes at room temperature on shaker and immediately frozen at −80C overnight. Cell lysates were thawed and 50 μL/well was transferred to ELISA plates (Total Histone H3 mouse (Cell Signaling Technology Cat #14269) mAb-coated Corning 1×8 strip-well, white, 96-well plates (Corning 2485)). After 2 hours room temperature incubation, plates were washed six times with PBS/0.05% Tween Wash Buffer using a BioTek plate washer. 50 μL of Histone H3K9AC rabbit detection mAb (Cell Signaling Technology Cat #9649S) diluted 1:1000 in blocking buffer (Thermo Fisher Scientific Cat #37542) was added to each well and incubated for 2 hours at room temperature. After washing, 50 μL anti-rabbit IgG, HRP-Linked antibody (Cell Signaling Technology Cat #7074) diluted 1:1000 in blocking buffer was added to each well and incubated for 60 minutes at room temperature. Following incubation, plates were washed as described above. 50 μL of luminescent GLO substrate reagent (R&D System Cat #DY993) was added to each well and incubated for 10 minutes at room temperature. Plates were read on the PHERAstar plate reader using the 96-well with Luminescent reading mode. IC50 values were calculated using a four-parameter fit with GraphPad Prism version 9.5.1 or in-house modified IDBS ActivityBase data analyzing package.

[1] = Homo sapiens, HT-1080, H3K9AC sandwich ELISA

Sequence of KAT2A (Q92830 whole entry): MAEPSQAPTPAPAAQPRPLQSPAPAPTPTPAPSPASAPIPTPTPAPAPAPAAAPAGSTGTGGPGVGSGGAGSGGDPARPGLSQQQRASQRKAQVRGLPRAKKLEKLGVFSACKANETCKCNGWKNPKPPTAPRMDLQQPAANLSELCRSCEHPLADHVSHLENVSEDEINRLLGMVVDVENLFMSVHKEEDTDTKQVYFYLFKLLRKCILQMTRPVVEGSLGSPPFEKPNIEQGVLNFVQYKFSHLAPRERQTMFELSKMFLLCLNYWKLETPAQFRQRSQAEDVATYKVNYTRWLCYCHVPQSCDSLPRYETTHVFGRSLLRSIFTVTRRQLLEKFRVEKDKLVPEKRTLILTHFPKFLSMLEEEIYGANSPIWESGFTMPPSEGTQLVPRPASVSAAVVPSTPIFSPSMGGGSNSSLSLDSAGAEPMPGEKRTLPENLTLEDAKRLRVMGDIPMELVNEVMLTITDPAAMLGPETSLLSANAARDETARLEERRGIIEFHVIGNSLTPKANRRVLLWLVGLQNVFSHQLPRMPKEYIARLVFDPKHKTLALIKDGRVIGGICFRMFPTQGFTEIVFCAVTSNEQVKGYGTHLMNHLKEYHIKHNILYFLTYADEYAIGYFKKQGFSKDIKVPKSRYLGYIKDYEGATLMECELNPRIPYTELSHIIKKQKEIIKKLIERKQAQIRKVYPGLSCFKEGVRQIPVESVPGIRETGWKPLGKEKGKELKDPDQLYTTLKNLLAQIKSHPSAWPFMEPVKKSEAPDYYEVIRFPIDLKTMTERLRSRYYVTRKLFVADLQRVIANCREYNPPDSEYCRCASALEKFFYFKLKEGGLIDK

Ki (KAT2A) [nM] | IC50 (H3K9AC (HT1080 cells); [1]) [nM] | IC50 (H3K9AC (HT1080 cells); H3K9AC sandwich ELISA) [nM] | Compound
0.74 | 2.71 |  | CN1CC(C)(C)C[C@H]1C(=O)N[C@@H]1CC[C@@H](Oc2ccc(-c3nn(C)cc3CC(=O)O)cc2-c2cccc(F)c2C2CCC2)C1 [Example J8, {3-[2′-cyclobutyl-3′-fluoro-6-({(1R,3R)-3-[(1,4,4-trimethyl-L-prolyl)amino]cyclopentyl}oxy)[1,1′-biphenyl]-3-yl]-1-methyl-1H-pyrazol-4-yl}acetic acid]
> 99.9 |  | > 1000 | CC(C)c1ccccc1-c1cc(CC(=O)NS(=O)(=O)C(C)C)ccc1O[C@@H]1CC[C@@H](NC(=O)[C@@]2(F)CNCC(C)(C)C2)C1 (single isomer, unassigned) [Example C74]
> 99.9 |  | > 1000 | CC(C)S(=O)(=O)NC(=O)Cc1cccc(O[C@@H]2CC[C@@H](NC(=O)[C@@]3(F)CNC4(CCC4)C3)C2)c1-c1cccc(F)c1C1CCC1 (atropisomer, axis not shown) [Example I18, (7S)-N-[(1R,3R)-3-({(1ψ)-2′-cyclobutyl-3′-fluoro-6-[2-oxo-2-(propane-2-sulfonamido)ethyl][1,1′-biphenyl]-2-yl}oxy)cyclopentyl]-7-fluoro-5-azaspiro[3.4]octane-7-carboxamide]
0.02 |  | > 1000 | CC1(C)CNC[C@](F)(C(=O)N[C@@H]2CC[C@@H](Oc3ccc(C(=O)O)cc3-c3cccc(F)c3C3CCC3)C2)C1 (single isomer, unassigned) [Example A37]
6.76 | 67.2 |  | CN1CC2(CCCC2)C[C@@H]1C(=O)N[C@@H]1CC[C@@H](Oc2ccc(C(=O)O)cc2-c2ccccc2C2CCC2)C1 (single isomer, unassigned) [Example D9]
163 | 3130 |  | CN1CC2(CCCC2)C[C@@H]1C(=O)N[C@@H]1CC[C@@H](Oc2cccc(C(=O)NS(C)(=O)=O)c2-c2cccc(F)c2C2CCC2)C1 (atropisomer, axis not shown) [Example I11, (3ξ)-N-[(1R,3R)-3-({(1ψ)-2′-cyclobutyl-3′-fluoro-6-[(methanesulfonyl)carbamoyl][1,1′-biphenyl]-2-yl}oxy)cyclopentyl]-2-methyl-2-azaspiro[4.4]nonane-3-carboxamide]
0.07 |  | 1.5 | CCc1c(F)cccc1-c1cc([C@@H](C)C(=O)NS(=O)(=O)C2(C)CC2)ccc1O[C@@H]1CC[C@@H](NC(=O)[C@@]2(F)CNC3(CCCC3)C2)C1 (single isomer, unassigned) [Example C87]
1430 |  | > 6680 | CN1CC(C)(C)C[C@H]1C(=O)N[C@@H]1CC[C@@H](Oc2cccc(CC(=O)NS(C)(=O)=O)c2-c2ccccc2C2CCC2)C1 (atropisomer, axis not shown) [Example I3, N-[(1R,3R)-3-{[(1ψ)-2′-cyclobutyl-6-{2-[(methanesulfonyl)amino]-2-oxoethyl}[1,1′-biphenyl]-2-yl]oxy}cyclopentyl]-1,4,4-trimethyl-L-prolinamide]
4.51 | 40.8 |  | CCS(=O)(=O)NC(=O)Cc1ccc(O[C@@H]2CC[C@@H](NC(=O)[C@@]3(F)CNC4(CCC4)C3)C2)c(-c2cccc(F)c2C2CCC2)c1 (single isomer, unassigned) [Example C32]
0.08 |  | 8.85 | O=C(O)c1nn(C2CC2)cc1-c1ccc(O[C@@H]2CC[C@@H](NC(=O)[C@@]3(F)CNC4(CCC4)C3)C2)c(-c2cccc(F)c2C2CCC2)c1 (single isomer, unassigned) [Example J11]
1440 | > 10000 |  | CC1(C)C[C@@](F)(C(=O)N[C@@H]2CC[C@@H](Oc3ccc(C(C)(C)C(=O)O)cc3-c3cccc(F)c3C3CCC3)C2)CN1 (single isomer, unassigned) [Example A3]
96 |  | > 1000 | CC1(C)C[C@@](F)(C(=O)N[C@@H]2CC[C@@H](Oc3ccc(C(=O)O)cc3-c3cccc(F)c3C3CCC3)C2)CN1 (single isomer, unassigned) [Example A13]
3.57 | 45.1 |  | CC(C)c1c(F)cccc1-c1cc(C(=O)O)ccc1O[C@@H]1CC[C@@H](NC(=O)[C@@H]2CC(C)(C)CN2C)C1 [Example D7, 3′-fluoro-2′-(propan-2-yl)-6-({(1R,3R)-3-[(1,4,4-trimethyl-L-prolyl)amino]cyclopentyl}oxy)[1,1′-biphenyl]-3-carboxylic acid]
8.87 | 83.5 |  | [2H]C([2H])([2H])N1CC(C)(C)C[C@H]1C(=O)N[C@@H]1CC[C@@H](Oc2ccc(C(C)(C)C(=O)O)cc2-c2cccc(F)c2C2CCC2)C1 [Example D15, 2-(2′-cyclobutyl-6-{[(1R,3R)-3-{[4,4-dimethyl-1-(^2H3)methyl-L-prolyl]amino}cyclopentyl]oxy}-3′-fluoro[1,1′-biphenyl]-3-yl)-2-methylpropanoic acid]
13.6 | 142 |  | CC1(C)C[C@](F)(C(=O)N[C@@H]2CC[C@@H](Oc3ccc(C(C)(C)C(=O)NS(=O)(=O)N4CCC4)cc3-c3cccc(F)c3C3CCC3)C2)CN1 (single isomer, unassigned) [Example C8]
1.21 | 28.6 |  | CN1CC(C)(C)C[C@H]1C(=O)N[C@H]1C[C@H](Oc2ccc(C(=O)O)cc2-c2ccccc2C2CCC2)C[C@H]1O (single isomer, unassigned) [Example K2, 2′-cyclobutyl-6-({(1ξ,3ξ,4ξ)-3-hydroxy-4-[(1,4,4-trimethyl-L-prolyl)amino]cyclopentyl}oxy)[1,1′-biphenyl]-3-carboxylic acid]
25.1 | 88 |  | CN1CC(C)(C)C[C@H]1C(=O)N[C@@H]1CC[C@@H](Oc2ccc(C(=O)O)cc2-c2ccccc2C2CCC2)C1 [Example D4, 2′-cyclobutyl-6-({(1R,3R)-3-[(1,4,4-trimethyl-L-prolyl)amino]cyclopentyl}oxy)[1,1′-biphenyl]-3-carboxylic acid]
0.06 |  | 5.4 | CCS(=O)(=O)NC(=O)[C@H](C)c1ccc(O[C@@H]2CC[C@@H](NC(=O)[C@@]3(F)CNC4(CCC4)C3)C2)c(-c2cccc(F)c2C2CCC2)c1 (single isomer, unassigned) [Example C91]
> 1000 |  | > 1000 | CC[C@](C)(C(=O)O)c1ccc(O[C@@H]2CC[C@@H](NC(=O)[C@]3(F)CNC4(CCC4)C3)C2)c(-c2cccc(F)c2C2CCC2)c1 (single isomer, unassigned) [Example A10]
27.3 |  | 451 | CC(C)n1cc(-c2ccc(O[C@@H]3CC[C@@H](NC(=O)[C@@]4(F)CNC5(CCC5)C4)C3)c(-c3cccc(F)c3C3CCC3)c2)c(C(=O)O)n1 (single isomer, unassigned) [Example J15]
75.7 |  | 489 | CN1CC(C)(C)C[C@H]1C(=O)N[C@H]1C[C@H](Oc2cccc(CC(=O)O)c2-c2cccc(F)c2C2CCC2)C[C@H]1O (atropisomer, axis not shown) [Example K5, [(1ψ)-2′-cyclobutyl-3′-fluoro-6-({(1S,3R,4S)-3-hydroxy-4-[(1,4,4-trimethyl-L-prolyl)amino]cyclopentyl}oxy)[1,1′-biphenyl]-2-yl]acetic acid]
45.4 |  | > 1000 | CCc1c(F)cccc1-c1cc(CC(=O)NS(=O)(=O)C(C)C)ccc1O[C@@H]1CC[C@@H](NC(=O)[C@@]2(F)CNC3(CCCC3)C2)C1 (single isomer, unassigned) [Example C72]

Compound | Ki (KAT2A) [nM] | IC50 (H3K9AC (HT1080 cells); [1]) [nM] | IC50 (H3K9AC (HT1080 cells); H3K9AC sandwich ELISA) [nM]
CN(C)S(=O)(=O)NC(=O)c1cccc(O[C@@H]2CC[C@@H](NC(=O)[C@@]3(F)CNC4(CCC4)C3)C2)c1-c1cccc(F)c1C1CCC1 [Example I20, (7S)-N-[(1R,3R)-3-({(1ψ)-2′-cyclobutyl-6-[(dimethylsulfamoyl)carbamoyl]-3′-fluoro[1,1′-biphenyl]-2-yl}oxy)cyclopentyl]-7-fluoro-5-azaspiro[3.4]octane-7-carboxamide] | 26.3 |  | 51.9

Reference: patent publication US20250188030A1, “Biphenyl and Phenylpyridine Compounds” (Pfizer Inc., priority 2023, published 2025)
